Laboratory results: patent US11181447B2, “Apparatus and method for determination of the fine particle dose of a powder inhalation formulation” (NANOPHARM LIMITED, priority 2016, dated 2021)

Assay: Paddle dissolution test (USP 711) of the aerosol dose collected on a filter in the apparatus of the invention
Type: physicochemical
Conditions: drug loading 50-500 μg, surface coverage 3.89-38.92 μg/cm^2; 1, 2, 5 and 10 actuations; DPI and MDI
Excerpt: In accordance with one embodiment of the invention, collected particles are subjected to a dissolution test. Dissolution tests are widely practised in the art and the selection of suitable dissolution media and methods for particles collected from a given drug formulation are a routine matter for those skilled in the art. One such test, which may be expediently used, is the paddle dissolution test (US Pharmocopeial Convention 2011, 711, Dissolution, Paddle Apparatus). Illustrative commonly used dissolution media include e.g. phosphate buffered saline (PBS) solution either with or without the addition of a surfactant (e.g. Tween 20, Tween 80, SDS etc.). The solution can be chemically analysed, for example by HPLC, to determine the mass collected.
Collection of the samples of FIGS. 7A and 7B was accomplished in an apparatus according to FIG. 4 in which a glass microfibre filter (Pall Corporation, A/E filter) having a nominal filter pore size of 1 μm was used. The reference scale on each image of FIGS. 7A and 7B corresponds to 10 μm.
In each run, after the relevant number of doses had been delivered into the device, the filter was removed and the collected mass dissolved in phosphate buffered saline (PBS) solution using the paddle dissolution method (USP 711, 2011) and chemically analysed by HPLC to determine the mass collected. […]

CCC(=O)O[C@]1(C(=O)SCF)[C@H](C)C[C@H]2[C@@H]3C[C@H](F)C4=CC(=O)C=C[C@]4(C)[C@@]3(F)[C@@H](O)C[C@@]21C [fluticasone propionate]
dependence of dissolution release profiles on drug loading: independent of drug loading
